Patent US20020128464A1, “Method of finding modulators of enzymes of the carotenoid biosynthetic pathway” (priority 2000, published 2002)

Key:
PDS = conditions: in vitro (Trebst, 1997); cited from earlier work
Erwinia uredovora PSY = Erwinia uredovora PSY (Pantoea ananas, UniProt P21683); conditions: overexpressed Erwinia uredovora PSY (Neudert, 1998); read-out: pI valve (inhibition of phytoene synthase); cited from earlier work
tobacco plants = assay: Carotenoid content (phytoene accumulation) of treated tobacco plants, HPLC; format: in vivo, Nicotiana tabacum; conditions: tobacco plants treated with norflurazon; comparator for PDS antisense lines

Sequence of Erwinia uredovora PSY (P21683 whole entry): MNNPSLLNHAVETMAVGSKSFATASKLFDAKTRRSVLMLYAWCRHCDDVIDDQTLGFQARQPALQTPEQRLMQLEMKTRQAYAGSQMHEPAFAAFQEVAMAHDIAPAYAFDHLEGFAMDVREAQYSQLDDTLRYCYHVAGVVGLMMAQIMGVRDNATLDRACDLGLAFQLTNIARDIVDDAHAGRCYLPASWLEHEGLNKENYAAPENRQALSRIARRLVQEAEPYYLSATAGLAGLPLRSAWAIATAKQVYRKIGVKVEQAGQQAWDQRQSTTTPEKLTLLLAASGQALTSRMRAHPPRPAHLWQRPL

Molecule	photosystem II activity following inhibition of PDS (PDS)	IC50 (Erwinia uredovora PSY) [µM]	accumulation of phytoene (tobacco plants)
fluridone	loss of photosystem II activity	–	–
C=C(CC[C@]12O[C@H](C(=O)O)[C@@](O)(C(=O)O)[C@](C(=O)O)(O1)[C@H](OC(=O)/C=C/[C@@H](C)C[C@@H](C)CC)[C@H]2O)[C@@H](OC(C)=O)[C@H](C)Cc1ccccc1 [squalestatin]	–	15	–
CNc1cnn(-c2cccc(C(F)(F)F)c2)c(=O)c1Cl [norflurazon]	loss of photosystem II activity	–	very high accumulation of phytoene
